Results taken from ChEMBL document CHEMBL1152529, “Synthesis, antifungal, haemolytic and cytotoxic activities of a series of bis(alkylpyridinium)alkanes” (Bioorg Med Chem, 2009).
The source made the active and inactive calls. The calls are words filed in the database; no cut-off is given here.

Columns and labels:
[1] = test system: Cryptococcus neoformans var. grubii H99; assay: Inhibition of lysophospholipid fatty acyl chain hydrolysis activity of Cryptococcus neoformans var. grubii H99 PLB assessed as formation of radiolabeled free fatty acid at 0.25 to 250 uM at pH 4 by radiometric assay
[2] = test system: Cryptococcus neoformans var. grubii H99; assay: Inhibition of lysophospholipase acyltransferase activity of Cryptococcus neoformans var. grubii H99 PLB assessed as formation of radiolabeled dipalmitoyl phosphatidylcholine at 0.25 to 250 uM at pH 4 by radiometric assay
Cryptococcus neoformans = assay: Antifungal activity against Cryptococcus neoformans ATCC 90112 after 48 to 72 hrs by broth microdilution method; format: functional; conditions: Cryptococcus neoformans, ATCC 90112; read-out: MIC
Candida albicans = assay: Antifungal activity against Candida albicans ATCC 10231 after 48 to 72 hrs by broth microdilution method; format: functional; conditions: Candida albicans, ATCC 10231; read-out: MIC
[3] = target: Phospholipase A2, major isoenzyme (Sus scrofa, UniProt P00592); assay: Inhibition of porcine pancreatic PLA2 after 1 hr by radiometric method
[4] = Inhibition of phospholipid fatty acyl chain hydrolysis activity of Cryptococcus neoformans var. grubii H99 PLB assessed as formation of radiolabeled free fatty acid at pH 4 by radiometric assay
A549 = assay: Cytotoxicity against human A549 cells after 3 hrs by MTS assay; format: cell-based; conditions: A549, 3 h
MDCK = assay: Cytotoxicity against MDCK cells after 3 hrs by MTS assay; format: cell-based; conditions: Canis lupus familiaris
[5] = Solubility at 50 uM; format: physicochemical
[6] = Cytotoxicity against human erythrocytes assessed as hemolysis after 1 hr; format: cell-based, Erythrocyte

Phospholipase A2, major isoenzyme, sequence (P00592 whole entry): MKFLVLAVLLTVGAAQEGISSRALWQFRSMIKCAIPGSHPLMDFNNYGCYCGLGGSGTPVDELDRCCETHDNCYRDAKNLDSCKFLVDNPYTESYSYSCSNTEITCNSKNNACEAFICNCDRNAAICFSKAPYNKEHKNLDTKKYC

SMILES | Activity [1] | Activity [2] | MIC (Cryptococcus neoformans) [µM] | MIC (Candida albicans) [µM] | IC50 [3] [µM] | IC50 [4] [µM] | IC50 (A549) [µM] | IC50 (MDCK) [µM] | solubility [5] | HC50 at 1 h [6] [µM]
CCCCCc1cc[n+](CCCCCCCCCCCC[n+]2ccc(CCCCC)cc2)cc1 [listing 1 of 2 here] | inactive | inactive | – | – | – | – | – | – | – | –
Cc1cc[n+](CCCCCCCCCCCC[n+]2ccc(C)cc2)cc1 | inactive | inactive | 88 | 22 | > 250 | > 250 | > 350 | > 350 | – | –
CN1CCC[C@H]1c1ccc[n+](CCCCCCCCCCCC[n+]2cccc([C@@H]3CCCN3C)c2)c1.[Br-].[Br-] | – | – | > 50 | > 50 | – | – | – | – | Insoluble | –
CCCCCCCCc1cc[n+](CCCCCCCCCCCC[n+]2ccc(CCCCCCCC)cc2)cc1 | – | – | 2.7 | 2.7 | – | – | – | – | – | 98
c1ccc(Cc2cc[n+](CCCCCCCCCCCC[n+]3ccc(Cc4ccccc4)cc3)cc2)cc1 | – | – | 22 | 11 | – | – | – | – | – | –
CCCCCc1cc[n+](CCCCCCCCCCCC[n+]2ccc(CCCCC)cc2)cc1 [listing 2 of 2 here] | – | – | 1.4 | 2.7 | – | – | – | – | – | –
CC(C)CCCc1cc[n+](CCCCCCCCCCCC[n+]2ccc(CCCC(C)C)cc2)cc1 | inactive | inactive | 2.7 | 2.7 | > 250 | 11 | 54 | 62 | – | 227
CCCc1cc[n+](CCCCCCCCCCCC[n+]2ccc(CCC)cc2)cc1 | – | – | 44 | 11 | – | – | – | – | – | –
CCCCCc1ccc[n+](CCCCCCCCCCCC[n+]2cccc(CCCCC)c2)c1 | – | – | 11 | 5.5 | – | – | – | – | – | > 350
CCc1cc[n+](CCCCCCCCCCCC[n+]2ccc(CC)cc2)cc1 | inactive | inactive | 44 | 11 | > 250 | 138 | > 350 | > 350 | – | –
CCCCC(CCCC)c1cc[n+](CCCCCCCCCCCC[n+]2ccc(C(CCCC)CCCC)c(C)c2)cc1C | – | – | 2.7 | 2.7 | – | – | 10 | 10 | – | 31
CCCCC(CCCC)c1cc[n+](CCCCCCCCCCCC[n+]2ccc(C(CCCC)CCCC)cc2)cc1 | inactive | inactive | 1.4 | 1.4 | 53 | 5 | 55 | 56 | – | 124
c1ccc(CCCc2cc[n+](CCCCCCCCCCCC[n+]3ccc(CCCc4ccccc4)cc3)cc2)cc1 | inactive | inactive | 2.7 | 2.7 | 104 | 5 | 55 | 65 | – | 67
CCCCc1cc[n+](CCCCCCCCCCCC[n+]2ccc(CCCC)cc2)cc1 | – | – | 11 | 5.5 | – | – | 215 | 150 | – | > 350
